Source: PMC3144492 (Biochemistry, 2011)

System: SpUP
Conditions: 50 mM phosphate (co-substrate), 50 mM HEPES, pH 7.5

Q: Which Km does the source give for `O=c1ccn([C@@H]2O[C@H](CO)[C@@H](O)[C@H]2O)c(=O)[nH]1` [uridine] here?
A: The Km was 171 ± 5 µM.
